In paper PMC9585581, “Developing Photoaffinity Probes for Dopamine Receptor D2 to Determine Targets of Parkinson’s Disease Drugs” (ACS Chemical Neuroscience, 2022):

Test system: DRD2-expressing cell line (DRD2-Strep Tag II fusion HEK293T)
Assay: Colocalization analysis via confocal microscopy of photo-cross-linked, dye-clicked probe in cells
Format: cell-based, human
Conditions: probe 5 μM, Alexa Fluor 555 azide clicked
Procedure: After the biochemical characterization of the dynamic interaction between the probe and target, we set out to characterize the static interaction: colocalization of probe and receptor in cells, with an emphasis on both on- and off-target labeling. Specifically, due to the known propensity for photo-cross-linking groups to nonspecifically label, we wanted a holistic view of how the probes interacted with whole cells. Thus, we treated our DRD2-expressing cell line with a 5 μM solution of the probe, photo-cross-linked, “clicked” on an azido fluorophore, and labeled the DRD2 receptor via an antibody conjugated to a complementary fluorophore (Figure 4a). Our results (Figure 4b) indicate that there is indeed background labeling with the probes. […] We therefore proceeded to quantify the specific vs nonspecific binding of the probe.
Figure 4 Photo-cross-linking of dye-clicked probe: confocal microscopy. (a) Schematic of the methodology used in the labeling process. […]
HEK293T cells and a stable HEK293T-derived cell line-expressing DRD2-Strep Tag II fusion were maintained in DMEM supplemented with 10% FBS, 100 U/mL penicillin, and 100 μg/mL streptomycin in a humidified atmosphere at 37 °C in 5% CO2. […] The cells were then washed 3 times with TBS and imaged for Alexa Fluor 488 fluorescence and AF555 fluorescence using a Zeiss LSM 980 with Airyscan 2. […]

| Compound | labeling of DRD2-expressing cells (confocal microscopy) |
| --- | --- |
| C#CCOc1ccc(C(=O)c2ccc(CN[C@H]3CCc4nc(N)sc4C3)cc2)cc1 [Compound 7, (S)-(4-(((2-Amino-4,5,6,7-tetrahydrobenzo[d]thiazol-6-yl)amino)methyl)phenyl)(4-(prop-2-yn-1-yloxy)phenyl)methanone] | higher avidity relative to the other probes |
| C#CCOc1ccc(C(=O)c2ccc(CNCCc3cccc4c3CC(=O)N4)cc2)cc1 [Compound 5, 4-(2-((4-(4-(Prop-2-yn-1-yloxy)benzoyl)benzyl)amino)ethyl)indolin-2-one] | higher avidity relative to the other probes |
